Test results as given in PubChem BioAssay (NCI).
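Assay format: 96-well plates, 48-hour exposure. TGI denotes the concentration required for complete inhibition of growth.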

Experiments:
Test in all cases: NCI-60 cell line screen, 48 h
[1] = tested on: KM12 colon
[2] = tested on: NCI/ADR-RES ovarian
[3] = tested on: SN12C renal
[4] = tested on: RXF 393 renal
[5] = tested on: MOLT-4 leukemia
[6] = tested on: MDA-MB-435
[7] = tested on: OVCAR-4 ovarian
[8] = tested on: MDA-MB-231 breast
[9] = tested on: CAKI-1 renal
[10] = tested on: SK-MEL-28 melanoma

| Compound | TGI [1] [µM] | TGI [2] [µM] | TGI [3] [µM] | TGI [4] [µM] | TGI [5] [µM] | TGI [6] [µM] | TGI [7] [µM] | TGI [8] [µM] | TGI [9] [µM] | TGI [10] [µM] |
| --- | --- | --- | --- | --- | --- | --- | --- | --- | --- | --- |
| C1CNCCN2CCCNCCN(C1)CC2 | > 100 | > 100 | > 100 | > 100 | > 100 | > 100 | > 100 | > 100 | > 100 | > 100 |
| CS(C)(=O)=N/C=C\C(=O)C(Cl)(Cl)Cl | > 100 | > 100 | > 100 | > 100 | > 100 | > 100 | > 100 | > 100 | > 100 | > 100 |
| COc1ccc2c(c1)/C(=C(\C(Cl)=C(Cl)Cl)[N+](=O)[O-])N2 | > 100 | > 100 | > 100 | > 100 | 97.1 | > 100 | > 100 | > 100 | > 100 | > 100 |
| CN1CN(c2ccccc2)C2(CCNCC2)C1=O | > 100 | > 100 | > 100 | > 100 | > 100 | > 100 | > 100 | > 100 | > 100 | > 100 |
| COc1cc2c(cc1C)NC(=O)/C2=C/c1c(Cl)[nH]c2cc(C)c(OC)cc12 | 15.5 | 13.5 | 8.18 | 22.1 | 17.8 | 8.49 | 18 | 33.2 | 21.2 | 24 |
| OC(c1cc(C(O)(C(F)(F)F)C(F)(F)F)ncn1)(C(F)(F)F)C(F)(F)F | > 10 | > 10 | > 10 | > 10 | > 10 | > 10 | > 10 | > 10 | > 10 | > 10 |
| O=C1CCc2c3c(c4c([nH]c5ccccc54)c2CC1)C(=O)NC3=O | 18.4 | > 100 | > 100 | 32.2 | 4.05 | 12.3 | 13.1 | > 100 | 21.2 | 12 |
| NS(=O)(=O)c1ccc(NNC(=O)c2cccc3c(=O)c4ccccc4[nH]c23)cc1 | > 100 | > 100 | > 100 | > 100 | > 100 | > 100 | > 100 | > 100 | > 100 | > 100 |
| Nn1c(CNc2ccc(-c3nnc(Nc4ccc(Cl)cc4)n3N)cc2)nnc1Nc1ccc(Cl)cc1 | > 100 | > 100 | > 100 | > 100 | > 100 | > 100 | > 100 | > 100 | > 100 | > 100 |
| C/C(Cl)=N\OC(=O)Nc1ccc([N+](=O)[O-])cc1 | 36.2 | 29.3 | 35.1 | 30.4 | 3.97 | 32.9 | 28.2 | 37.1 | 9.79 | 31.5 |
| Cc1c2c(c(C)c3c[n+](C)ccc13)Oc1ccccc1O2 | 6.42 | > 100 | > 42.4 | > 100 | 23.8 | 34.1 | 28.2 | > 69.8 | > 100 | 28.6 |
| CCCCC1Cc2cc(O)ccc2-c2n1c1cc(O)ccc1[n+]2C (configuration not stated) (tested in a mixture with another compound) | > 100 | > 100 | > 100 | > 90.3 | > 100 | 59.6 | 97.6 | > 100 | > 100 | 74.3 |
| COc1ccc(-c2cc(-c3ccccc3)n(C3OC(COC(C)=O)C(OC(C)=O)C(OC(C)=O)C3OC(C)=O)c(=S)c2C#N)cc1 (configuration not stated) | 44.7 | 50.5 | – | 23.2 | > 100 | 19.4 | 8.06 | 16.4 | 19 | 25.1 |
| CCOC(=O)c1ccc(N=C2SC(=S)N(c3ccc(F)cc3)C2=Nc2ccc(C(=O)OCC)cc2)cc1 | > 71.7 | 44.8 | 33.6 | 23.3 | 35.1 | 40.7 | 33.4 | 25.2 | 37.8 | 42.3 |
| CCN(CC)CC(O)c1ccc2ccc3ccccc3c2c1 (configuration not stated) | 29.1 | 33.6 | 32.1 | 31.4 | 32.9 | 31.3 | 35.3 | 28.4 | 26.6 | 34.6 |
| CCN(CC)CCn1ncc2ccc3c(c(=O)c4cccnc4n3CCN(CC)CC)c21 | 4.01 | 4.86 | 8.15 | 2.8 | 1.43 | 1.94 | 2.87 | 4.07 | 9.71 | 4.01 |
| O=C(CSc1nc2ccc(I)cc2c(=O)n1Cc1ccccc1)N/N=C/c1ccccc1 | > 100 | 92 | > 100 | 26.7 | > 100 | > 100 | > 100 | 43.3 | 23 | > 100 |
| Cc1csc2c(P(=O)(OC(C)C)OC(C)C)c(-c3ccccc3)cn12 | 30.6 | 36.2 | 32.1 | 33.7 | 31.4 | 37.7 | 33 | 41.1 | 43.4 | 32.9 |
| NS(=O)(=O)c1nnc(NC(=O)CCC(=O)O)s1 | > 100 | > 100 | > 100 | > 100 | > 100 | > 100 | > 100 | > 100 | > 100 | > 100 |
| O=C1C=C2S[C@H]3C[C@]2(C=C1Br)c1c(c(O)c2c4c1=NCCC=4C=N2)N3 | 3.83 | 0.457 | 2.48 | 0.947 | 0.418 | 0.305 | 0.985 | 1.16 | 3.07 | 2.76 |

| Compound | TGI [1] [µM] | TGI [2] [µM] | TGI [3] [µM] | TGI [4] [µM] | TGI [5] [µM] | TGI [6] [µM] | TGI [7] [µM] | TGI [8] [µM] | TGI [9] [µM] | TGI [10] [µM] |
| --- | --- | --- | --- | --- | --- | --- | --- | --- | --- | --- |
| Cc1ccnc(NS(=O)(=O)c2ccc(NC(=O)c3ccc4nc5ccccc5c(Nc5ccc(S(=O)(=O)Nc6nccc(C)n6)cc5)c4c3)cc2)n1 | > 100 | > 100 | > 100 | 51.2 | > 100 | > 100 | > 100 | > 100 | > 100 | > 100 |
| CCCCCCc1nn2c(-c3ccc(C)cc3)nnc2s1 | > 100 | > 100 | > 100 | > 100 | > 100 | > 100 | > 100 | > 100 | > 100 | > 100 |
| COc1ccc2c(c1)/C(=C(\C(Cl)=C(\Cl)N1CCCCC1)[N+](=O)[O-])N2 | > 100 | > 100 | > 100 | > 100 | > 100 | > 100 | > 100 | > 100 | > 100 | > 100 |
| COc1cc(/C=C2\C(=O)N(c3cccc(Cl)c3)C(c3ccccc3)S2(=O)=O)cc(OC)c1OC (configuration not stated) | > 100 | > 100 | > 100 | > 100 | 98.8 | > 100 | > 100 | > 100 | > 100 | > 100 |
| COC(=O)C12CCC(C(=O)OC)(Cc3c(c4ccccc4n3S(=O)(=O)c3ccccc3)C1)C2=O (configuration not stated) | > 100 | > 100 | > 100 | 24.1 | > 100 | > 100 | > 100 | > 100 | > 100 | > 100 |
| CC1=NN(c2nc(N)nc(CS(C)(=O)=O)n2)C(C)(C)C1 | > 100 | > 100 | – | > 100 | > 100 | > 100 | > 100 | > 100 | > 100 | > 100 |
| O=C(N/N=C(/COc1cccc(Cl)c1)N=Cc1ccncc1)c1ccncc1 | > 100 | > 100 | > 100 | > 100 | > 100 | > 100 | > 100 | > 100 | > 100 | > 100 |
| COC(=O)N1CC[C@@H]2CCC=C(c3cccc4c3OCO4)[C@@H]21 | > 100 | > 100 | > 100 | > 100 | > 100 | > 100 | > 100 | > 100 | > 100 | > 100 |
| Oc1c(C(O)(c2ccccc2)c2ccc3ccccc3c2O)ccc2ccccc12 | 25.4 | 43.1 | 23.1 | 25.3 | 5.56 | 40.6 | > 47.8 | 33.6 | 33.8 | 33.3 |
| CCOC(=O)/C(C(=S)NC)=C(/N)N1CCCC1 | > 100 | > 100 | > 100 | > 100 | > 100 | > 100 | > 100 | > 100 | > 100 | > 100 |
| CCN(CC)CCN1c2ccccc2Sc2ccc3ccccc3c21 | 19.7 | 25.6 | 24.4 | 9.5 | 7.66 | 21.2 | 17 | 18.3 | 22.7 | 20.2 |
| CC(C)(C)OC(=O)N1C(C2=COc3ccccc3O2)=COc2ccccc21 | > 100 | 82.3 | > 100 | 22.5 | 54 | > 100 | > 100 | 69.6 | > 100 | 87.5 |
| O=C(CC(=O)c1ccncc1)c1ccccc1 | > 100 | 69.3 | > 62.5 | > 100 | > 100 | > 100 | > 100 | > 100 | > 100 | > 100 |
| C=C1CC(OC(C)=O)/C=C(/C)CCC(C(C)(C)O)CC1O (configuration not stated) | > 100 | > 100 | > 100 | > 100 | > 100 | > 100 | > 100 | > 100 | > 100 | > 100 |
| COc1ccc(C2CCc3nc4nc(N)nc(N)c4cc3C2)cc1 (configuration not stated) | > 100 | > 100 | 59.5 | 37.2 | 65.3 | 78.2 | 67.4 | 42 | > 100 | 65 |
| CCCS(=O)(=O)O | > 100 | > 100 | – | > 100 | > 100 | > 100 | > 100 | > 100 | > 100 | > 100 |
| Cc1nn2c(N)cc(=O)nc2nc1/C=C/c1ccc(N(C)C)cc1 | > 100 | > 100 | > 100 | > 100 | > 100 | > 100 | > 100 | > 100 | > 100 | > 100 |
| O=C1C(NS(=O)(=O)c2ccccc2)=C(n2cnc3ccccc32)C(=O)c2ccccc21 | > 100 | > 100 | > 100 | 98.2 | > 100 | > 100 | > 100 | > 100 | > 100 | > 100 |
| C=CCCCCOC1C=CC(OC(C)=O)C(COC(C)=O)O1 (configuration not stated) | > 100 | > 100 | > 100 | > 100 | > 100 | > 100 | > 100 | > 100 | > 100 | > 100 |
| CCCCCCCCCc1cc(O)c(O)cc1CCCCCCCCC | > 10 | > 10 | > 10 | > 10 | > 10 | > 10 | > 10 | > 10 | > 10 | > 10 |
